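Exposure lasted 48 hours, with cells grown in 96-well plates and compounds tested at five concentrations. The concentration for 50% growth inhibition is given as GI50.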 Active and inactive are the calls of the source. Cut-off read from the data, not from the text of the source: active = GI50 up to about 1.1 µM and inactive = higher. Where only a bound is given, the exact number is not on record here.

We go through twelve molecules from ChEMBL document CHEMBL1201862, “PubChem BioAssay data set” (2004).

Common to all, as to assay: NCI-60 cell line screen, 48 h
Assay [1] deals with NCI-H226.
Assay [2] deals with M14.
For assay [3], the system named is SNB-75.
The subject of assay [4] is NCI-H522.
Assay [5] concerns SK-MEL-5.
Assay [6] deals with A549.
The subject of assay [7] is SF-539.
In assay [8] the test system is HL-60.
For assay [9], the system named is ACHN.
Assay [10] relates to HCT-15.
In assay [11] the test system is A498.
In assay [12] the test system is HCT-116.
In assay [13] the test system is Malme-3M.
In assay [14] the test system is SK-MEL-28.
The test system of assay [15] is TK-10.
For assay [16], the system named is SF-268.
In assay [17] the test system is CAKI-1.
The subject of assay [18] is SK-MEL-2.
The test system of assay [19] is SF-295.
Assay [20] concerns SK-OV-3.

Turning to `CC(C)OP(=O)(OC(C)C)/C(=N/Nc1ccc([N+](=O)[O-])cc1)Nc1ccc(N/C(=N\Nc2ccc([N+](=O)[O-])cc2)P(=O)(OC(C)C)OC(C)C)cc1`, the GI50 in [1] is 74.1 µM (inactive); in assay [2], 14.5 µM (inactive); in assay [3], 14.2 µM (inactive); in assay [4] it was 6.22 µM (inactive); in assay [5] it was 6.98 µM (inactive); in assay [6] it was 4.91 µM (inactive). Further, the GI50 in assay [7] was 57.3 µM (inactive); in assay [8], 20.9 µM (inactive); in assay [9] it was 23.4 µM (inactive); in [10], 6.21 µM; in [11], 16.4 µM (inactive); in [12], 4.15 µM (inactive). The GI50 in assay [13] was > 100 µM (inactive); in assay [14] it was > 100 µM (inactive); in assay [15], 89.9 µM (inactive); in assay [16], > 100 µM (inactive); in [17], 32.8 µM (inactive); in assay [18], 48 µM (inactive).

Turning to `O=S(=O)(N=S(c1ccccc1)c1ccccc1)c1ccccc1`, the GI50 in assay [1], in assay [2], in assay [6], in assay [7], in assay [8] and in assay [9] was > 100 µM (inactive) in each case. In addition, the GI50 in assay [19] was > 100 µM (inactive); in assay [10], > 100 µM; in assay [11] it was 78.9 µM (inactive); in [12] it was > 100 µM (inactive); in assay [13] it was > 100 µM (inactive); in assay [14], > 100 µM (inactive). Moreover, the GI50 in assay [15] and in assay [16] was > 100 µM (inactive) throughout.

Consider `Nc1ncnc2c1cnn2Cc1ccc(Cl)cc1`, for which the GI50 in assay [1] was > 100 µM (inactive); in [2], > 100 µM (inactive); in assay [3], 48.4 µM (inactive); in [4], 92 µM (inactive); in assay [5], > 100 µM (inactive); in assay [6] it was > 100 µM (inactive). The GI50 in assay [8] was > 100 µM (inactive); in assay [9], > 100 µM (inactive); in assay [19] it was > 100 µM (inactive); in assay [10] it was > 100 µM; in [11], 0.445 µM (active); in [12], > 100 µM (inactive). Further, the GI50 in [15] and in [16] was > 100 µM (inactive) each time.

For `N#CCCN(CCC#N)c1ccc(C(=N/c2ccc(Cl)cc2)/N=N/c2ccc(Cl)cc2)cc1`, the GI50 in assay [1] is 17.3 µM (inactive); in [2] it was 21.5 µM (inactive); in assay [3] it was 20 µM (inactive); in [4], 17 µM (inactive); in assay [5], 10.1 µM (inactive); in assay [6], 16.9 µM (inactive). Moreover, the GI50 in assay [7] was 17.8 µM (inactive); in assay [9], 18.2 µM (inactive); in assay [19] it was 10.7 µM (inactive); in [10], 10.7 µM; in [11], 19.9 µM (inactive); in assay [12], 19 µM (inactive). Further, the GI50 in assay [14] is 59.2 µM (inactive); in assay [20], 33 µM (inactive); in assay [15], 18.5 µM (inactive); in [16] it was 15.7 µM (inactive); in assay [17], 16.4 µM (inactive); in assay [18], 9.23 µM (inactive).

As to `CCCCNC(=S)Nc1nc(C(=O)NNC(=S)NC2CCCCC2)cs1`, the GI50 in assay [1] was > 100 µM (inactive); in assay [2], > 100 µM (inactive); in assay [4], > 100 µM (inactive); in assay [5] it was 67.6 µM (inactive); in [6] it was > 100 µM (inactive); in assay [7], > 100 µM (inactive). Besides, the GI50 in assay [9] was 62.7 µM (inactive); in [19], > 100 µM (inactive); in [10] it was 32.7 µM; in assay [11], > 100 µM (inactive); in assay [12], > 100 µM (inactive); in assay [13], > 100 µM (inactive). Moreover, the GI50 in assay [20] was 49 µM (inactive); in assay [15], > 100 µM (inactive); in assay [16], > 100 µM (inactive); in assay [17] it was > 100 µM (inactive); in assay [18], > 100 µM (inactive).

As for `O=C(O)c1ccccc1CN1CCCC(C(=O)O)C1` (stereo not drawn), the GI50 in assay [1], in assay [2], in [3], in assay [4], in assay [5] and in assay [6] was > 100 µM (inactive) throughout. Besides, the GI50 in assay [7] is > 100 µM (inactive); in assay [9], > 100 µM (inactive); in assay [19] it was > 100 µM (inactive); in assay [10], > 100 µM; in [11] it was > 100 µM (inactive); in assay [12] it was > 100 µM (inactive). Moreover, the GI50 in assay [13], in assay [14], in [20], in assay [15], in [16] and in [17] was > 100 µM (inactive) throughout. Also, the GI50 in assay [18] is > 100 µM (inactive).

On to `COC(=O)C(NC(=O)c1ccccc1)C(c1c(O)cc(O)cc1O)P(=O)(OC)OC` (stereo not drawn), for which the GI50 in assay [1] is > 100 µM (inactive); in [2], 48.8 µM (inactive); in assay [3], > 100 µM (inactive); in [4] it was > 100 µM (inactive); in [5], > 100 µM (inactive); in assay [6], > 100 µM (inactive). Moreover, the GI50 in [7] was > 100 µM (inactive); in [8] it was 74 µM (inactive); in [9], > 100 µM (inactive); in assay [19], > 100 µM (inactive); in assay [10], > 100 µM; in [11], > 100 µM (inactive). Besides, the GI50 in assay [12], in assay [14], in [20], in assay [15], in assay [16] and in assay [17] was > 100 µM (inactive) each time. In addition, the GI50 in assay [18] is > 100 µM (inactive).

In the case of `COC(=O)CCC(=O)c1ccc2c(c1)CCC2`, the GI50 in assay [2], in [3], in assay [4], in assay [5], in assay [6] and in [7] was > 100 µM (inactive) in each case. Further, the GI50 in assay [8] was > 100 µM (inactive); in assay [9], > 100 µM (inactive); in [19], > 100 µM (inactive); in assay [10], > 100 µM; in assay [11], > 100 µM (inactive); in assay [12] it was > 100 µM (inactive). Further, the GI50 in [13], in assay [14], in [20], in assay [15], in [16] and in assay [17] was > 100 µM (inactive) each time. Besides, the GI50 in assay [18] was > 100 µM (inactive).

As to `C=C1C(=O)O[C@@H]2[C@H](O)[C@@H](C)[C@@H]3C=CC(=O)[C@@]3(C)[C@H](OC(=O)C=C(C)C)[C@H]12`, the GI50 in assay [1] is 2 µM (inactive); in assay [3], 1.04 µM (active); in assay [4] it was 0.179 µM (active); in assay [5], 1.69 µM (inactive); in assay [6], 2.94 µM (inactive); in assay [7], 0.255 µM (active). Further, the GI50 in assay [8] was 0.2 µM (active); in assay [19], 2.8 µM (inactive); in assay [10], 0.242 µM; in [11], 2.21 µM (inactive); in assay [12], 0.655 µM (active); in [13] it was 0.587 µM (active). The GI50 in assay [14] was 0.514 µM (active); in [20], 3.57 µM (inactive); in assay [16] it was 0.916 µM (active); in [17], 0.536 µM (active); in assay [18] it was 1.32 µM (inactive).

On to `Nc1nc(=O)c2c([nH]1)NCC(CNc1ccc(C(=O)N[C@@H](CCC(=O)O)C(=O)O)cc1)N2C=O` (stereo partly drawn) [LEUCOVORIN CALCIUM], for which the GI50 in assay [1] is 81.1 µM (inactive); in assay [3], > 125 µM (inactive); in assay [4], > 125 µM (inactive); in assay [5], > 125 µM (inactive); in assay [6], > 125 µM (inactive); in assay [7], > 125 µM (inactive). The GI50 in assay [8] was 39.5 µM (inactive); in [19], > 125 µM (inactive); in [10] it was > 125 µM; in assay [12] it was > 125 µM (inactive); in assay [13], > 125 µM (inactive); in [14], > 125 µM (inactive). Also, the GI50 in assay [20] is > 125 µM (inactive); in [16], > 125 µM (inactive); in assay [17], 102 µM (inactive); in [18], 40.4 µM (inactive).

As to `NC(CCCCO)C(=O)O` (stereo not drawn), the GI50 in assay [1], in assay [2], in [3], in [4], in assay [5] and in [6] was > 100 µM (inactive) throughout. Besides, the GI50 in [8] was > 100 µM (inactive); in [9], > 100 µM (inactive); in [19] it was > 100 µM (inactive); in assay [10], > 100 µM; in assay [11], > 100 µM (inactive); in assay [13], > 100 µM (inactive). Further, the GI50 in assay [14], in assay [20], in assay [15], in assay [16], in assay [17] and in assay [18] was > 100 µM (inactive) throughout.

For the molecule `O=S(O)CCCCCSSSCCCCCS(=O)O`, the GI50 is 43.7 µM (inactive) in assay [2]; 24.6 µM (inactive) in [3]; 24 µM (inactive) in assay [4]; 84.3 µM (inactive) in assay [7]; 24.7 µM (inactive) in assay [8]; > 100 µM (inactive) in assay [9]. The GI50 in [11] is > 100 µM (inactive); in assay [12] it was 15.5 µM (inactive); in [13], 6.5 µM (inactive); in assay [14], 39.8 µM (inactive); in assay [20] it was > 100 µM (inactive); in [15] it was 29 µM (inactive). The values for the GI50 in [16] and in assay [18] were 26.9 µM (inactive) and 25.9 µM (inactive), respectively.
